One data set concerns P2X7R. In words: Selectivity index, ratio of CC50 for Swiss Webster mouse peritoneal macrophages to IC50 for antagonist activity at P2X7R in Swiss Webster mouse peritoneal macrophages. The format is toxicity. As to conditions: read-out: Ratio CC50/IC50.
The nature of data set [1]: Kinetic solubility in pH 4 citrate buffer. As to conditions: read-out: Kinetic_solubility. The format is physicochemical.
Data set [2] is described as follows: Apparent permeability across apical to basolateral side in human Caco2 cells at 100 uM after 60 mins by lucifer yellow fluorescence-based assay relative to propranolol. It counts as ADME, cell-based. The settings on record: caco-2, 1 h. (Caco-2 monolayers are a common model of the intestinal barrier.)
Data set [3] can be described thus: Kinetic solubility in pH 10 sodium hydroxide buffer. The format is physicochemical. As to conditions: read-out: Kinetic_solubility.
The nature of data set [4]: Apparent permeability across apical to basolateral side in human Caco2 cells at 100 uM after 60 mins by lucifer yellow fluorescence-based assay. The format is ADME, cell-based. The settings on record: Caco-2.
Data set [5] in a line: Safety index, ratio of test compound CC50 to BGG CC50 for Swiss Webster mouse peritoneal macrophages by LDH release assay. The format is ADME, cell-based, Peritoneal macrophage. A general note: LDH in the medium is a marker of cell lysis.
The next data set relates to THP-1. In words: Antiinflammatory activity in LPS/IFNgamma-differentiated human THP1 cells assessed as inhibition of ATP-induced IL-1beta release after 30 mins by ELISA. As to conditions: THP-1, 0.5 h. It counts as functional, cell-based. In general terms: In an ELISA, binding on a coated surface is turned into a signal by an enzyme label.
Data set [6] in a line: Octanol-PBS distribution co-efficient, log D of the compound at 25 mM at pH 7.4 after 2 hrs by shake flask method. It counts as physicochemical.
The target of data set [7] is T1, P2X purinoceptor 7 (Homo sapiens, UniProt Q99572).
T1 sequence (Q99572 whole entry): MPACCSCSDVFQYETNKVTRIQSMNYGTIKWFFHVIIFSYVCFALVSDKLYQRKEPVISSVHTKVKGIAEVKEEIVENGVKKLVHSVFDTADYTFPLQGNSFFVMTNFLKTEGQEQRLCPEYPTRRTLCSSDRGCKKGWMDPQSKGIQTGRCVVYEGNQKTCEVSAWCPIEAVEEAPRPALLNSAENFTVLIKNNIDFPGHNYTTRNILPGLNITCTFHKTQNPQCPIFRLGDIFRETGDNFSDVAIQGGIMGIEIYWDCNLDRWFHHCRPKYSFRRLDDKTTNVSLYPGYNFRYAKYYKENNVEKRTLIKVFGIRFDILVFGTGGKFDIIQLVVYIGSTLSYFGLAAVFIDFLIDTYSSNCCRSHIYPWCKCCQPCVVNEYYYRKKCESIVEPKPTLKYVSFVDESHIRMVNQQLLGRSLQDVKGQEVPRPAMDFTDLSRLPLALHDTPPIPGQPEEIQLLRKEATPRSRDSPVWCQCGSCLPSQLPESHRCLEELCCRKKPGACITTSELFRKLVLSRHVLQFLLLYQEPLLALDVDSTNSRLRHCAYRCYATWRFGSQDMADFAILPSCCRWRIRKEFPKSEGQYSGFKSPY
In words: Antagonist activity at human P2X7R expressed in HEK293 cells assessed as inhibition of ATP-induced […] uptake preincubated for 10 mins followed by ATP induction measured after 25 mins by fluorescence assay. It counts as cell-based.

The nature of data set [8]: Kinetic solubility in pH 7.4 phosphate buffer. The format is physicochemical. The settings on record: read-out: Kinetic_solubility.
The nature of data set [9]: Intrinsic clearance in human liver microsomes assessed per mg of protein at 1 uM preincubated for 45 mins followed by NADPH addition. The format is ADME, microsome. As to conditions: read-out: CLH.
Data set [10] is described as follows: Kinetic solubility in pH 2 hydrochloride buffer. The format is physicochemical. The settings on record: read-out: Kinetic_solubility.
Data set [11] deals with Peritoneal macrophage. In words: Antiinflammatory activity in LPS/IFNgamma-differentiated Swiss Webster mouse peritoneal macrophages assessed as inhibition of ATP-induced IL-1beta release preincubated for 15 mins followed by ATP/LPS challenge measured after 30 mins by sandwich ELISA. The format is functional, cell-based.
Data set [12] has as its target T2, P2X purinoceptor 7 (Mus musculus) (UniProt Q9Z1M0).
T2 sequence (whole entry): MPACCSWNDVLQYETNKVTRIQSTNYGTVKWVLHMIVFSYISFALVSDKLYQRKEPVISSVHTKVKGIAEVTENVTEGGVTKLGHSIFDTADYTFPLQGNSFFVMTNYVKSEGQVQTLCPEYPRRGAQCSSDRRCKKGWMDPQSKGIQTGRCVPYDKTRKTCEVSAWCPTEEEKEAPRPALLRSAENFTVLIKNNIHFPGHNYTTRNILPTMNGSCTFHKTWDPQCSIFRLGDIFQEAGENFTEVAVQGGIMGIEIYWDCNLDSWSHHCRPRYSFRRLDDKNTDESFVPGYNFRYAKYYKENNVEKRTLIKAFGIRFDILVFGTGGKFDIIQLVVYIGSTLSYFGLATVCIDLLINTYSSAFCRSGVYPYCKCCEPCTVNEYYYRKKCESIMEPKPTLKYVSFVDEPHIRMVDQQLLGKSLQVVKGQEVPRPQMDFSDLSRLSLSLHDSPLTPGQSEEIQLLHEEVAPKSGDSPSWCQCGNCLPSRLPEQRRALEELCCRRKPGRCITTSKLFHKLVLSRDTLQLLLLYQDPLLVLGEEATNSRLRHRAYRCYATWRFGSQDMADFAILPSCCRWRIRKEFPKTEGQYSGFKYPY
In words: (§1) Antagonist activity at P2X7R in Swiss Webster mouse peritoneal macrophages assessed as inhibition of ATP-induced propidium iodide uptake preincubated for 10 mins followed by ATP induction measured after 25 mins by fluorescence assay.

In data set [13] the target is T3, P2X purinoceptor 7 (Mus musculus, UniProt Q9Z1M0).
T3 sequence (Q9Z1M0 whole entry): T2 sequence (whole entry)
Described as §1.

For data set [14], the system named is Peritoneal macrophage. In words: Cytotoxicity against Swiss Webster mouse peritoneal macrophages at 100 uM after 72 hrs by resazurin reduction assay. The format is cell-based.
Data set [15] concerns Mus musculus. In words: Antiinflammatory activity in ip dosed Swiss Webster mouse assessed as inhibition of carrageenan-induced paw edema preincubated for 30 mins followed by carrageenan challenge measured after 60 mins by plethysmometer. It counts as functional, organism-based.
The nature of data set [16]: Safety index, ratio of test compound CC50 to A740003 CC50 for Swiss Webster mouse peritoneal macrophages by LDH release assay. The format is ADME, cell-based, Peritoneal macrophage.
The nature of data set [17]: Cytotoxicity against Swiss Webster mouse peritoneal macrophages by LDH release assay. The format is cell-based, Peritoneal macrophage.
Data set [18] has as its target T2, P2X purinoceptor 7 (Mus musculus). In words: Antagonist activity at P2X7R in Swiss Webster mouse peritoneal macrophages assessed as inhibition of ionic current amplitude at 500 nM incubated for 300 secs in presence of ATP by patch clamp method.
The subject of data set [19] is Peritoneal macrophage. In words: Antiinflammatory activity in IFNgamma-differentiated Swiss Webster mouse peritoneal macrophages assessed as inhibition of LPS-induced IL-1beta release at 500 nM preincubated for 15 mins followed by LPS challenge measured after 30 mins by sandwich ELISA. The format is functional, cell-based.
The nature of data set [20]: Intrinsic clearance in mouse liver microsomes assessed per mg of protein at 1 uM preincubated for 45 mins followed by NADPH addition. It counts as ADME, microsome. The settings on record: read-out: CLH.
In data set [21] the test system is Mus musculus. In words: Antiinflammatory activity in Swiss Webster mouse assessed as inhibition of carrageenan-induced paw edema at 10 mg/kg, ip preincubated for 30 mins followed by carrageenan challenge measured after 60 mins by plethysmometer. The format is functional, organism-based.

Values after ≈ are worked out from the molar mass of the structure shown. Active and inactive are the calls of the source. The rule behind the calls is not given here.

Consider `O=C1C(O)=C(c2ccccc2)C(=O)c2ccccc21`, for which the values for the selectivity ratio (with P2X7R; in data set [5]; in data set [16]) were 86400, 10 to 20 and 3 to 6, respectively. Further, the solubility kinetic in [1], in [3], in data set [8] and in data set [10] was under 500 µM each time. Besides, in data set [2], the Papp came out at 60%. Further, in [4], the Papp A→B at 1 h, 100 µM came out at 61.1 ×10⁻⁶ cm/s. Further, the IC50 in the data set on THP-1 amounted to 0.0098 µM; on P2X purinoceptor 7 [7], 0.0224 µM; in the data set on Peritoneal macrophage [11], 0.0112 µM; at P2X purinoceptor 7 [13], 0.0231 µM. This compound also came in with a logD at 2 h, 25000 µM in data set [6] of -0.39. The microsomal CLint at 1 µM was 36.8 µL/min/mg in data set [9] and 27.7 µL/min/mg in data set [20]. For the same compound, the inhibition entry (in data set [12]; in the data set with Mus musculus [15]) was “Dose-dependent effect” in each case. In addition, the Activity entry in the data set on Peritoneal macrophage [14] is listed as “Non-Toxic”. In [17], this compound returned a CC50 of 1990 µM. The inhibition entry in data set [18] is “Active”. The inhibition entry in the data set with Peritoneal macrophage [19] is “inactive”.
For the compound `Cc1ccc(C2=C(O)C(=O)c3ccccc3C2=O)cc1`, on P2X purinoceptor 7 [13], the IC50 turned out to be 81.3 µM. In addition, the Activity result in the data set with Peritoneal macrophage [14] is listed as “Non-Toxic”.
`CCOc1ccc(Nc2ccc(/C(=C3C=C/C(=[N+](/CC)Cc4cccc(S(=O)(=O)[O-])c4)C=C/3C)c3ccc(N(CC)Cc4cccc(S(=O)(=O)O)c4)cc3C)cc2)cc1` [BRILLIANT BLUE G]: in the data set on P2X7R, the selectivity ratio was found to be 5.73. Moreover, the IC50 was 19.3 µM with THP-1, 0.536 µM on P2X purinoceptor 7 [7], 19.8 µM in the data set on Peritoneal macrophage [11] and 15.2 µM on P2X purinoceptor 7 [13]. For the same compound, in data set [17], the CC50 came to 87.3 µM.
Turning to `O=C(O)Cc1ccccc1Nc1c(Cl)cccc1Cl`, the inhibition entry with Mus musculus [21] is “Active”.
With `COc1cccc(C2=C(O)C(=O)c3ccccc3C2=O)c1`, at P2X purinoceptor 7 [13], the IC50 came out at 3.17 µM. The Activity entry in the data set on Peritoneal macrophage [14] is recorded as “Non-Toxic”.
Consider `O=C1C(O)=C(I)C(=O)c2ccccc21`, for which the values for the selectivity ratio (with P2X7R; in [5]; in data set [16]) were 50600, 10 to 20 and 3 to 6, respectively. In addition, the solubility kinetic is 300 µM (≈ 90 µg/mL) in [1], 300 µM (≈ 90 µg/mL) in data set [3], under 300 µM in data set [8] and 300 µM (≈ 90 µg/mL) in data set [10]. For the same compound, the Papp entry in data set [2] is “<= 50%”. For the same compound, the apical-to-basolateral permeability (Papp A→B) at 1 h, 100 µM in data set [4] came to 54.2 ×10⁻⁶ cm/s. Further, the half-inhibitory concentration (IC50) with THP-1 was found to be 0.0402 µM; on P2X purinoceptor 7 [7] it was 0.0712 µM; with Peritoneal macrophage [11], 0.0489 µM; at P2X purinoceptor 7 [13] it was 0.0484 µM. The compound further registered a logD at 2 h, 25000 µM in data set [6] of -0.11. The figures for the microsomal CLint at 1 µM in data set [9] and in [20] were 31.1 µL/min/mg and 24.6 µL/min/mg, respectively. Moreover, the inhibition result (in data set [12]; in the data set with Mus musculus [15]) was “Dose-dependent effect” in each case. Moreover, the Activity entry in the data set with Peritoneal macrophage [14] was “Non-Toxic”. In [17], this compound yielded a CC50 of 2020 µM. Besides, the inhibition result in [18] is “Active”. Moreover, the inhibition result in the data set on Peritoneal macrophage [19] is “inactive”.
Turning to `COc1ccc(CC(=O)NC(N/C(=N/C#N)Nc2cccc3ncccc23)C(C)(C)C)cc1OC` (stereo unspecified), the selectivity ratio with P2X7R is 362. Moreover, the IC50 in the data set with THP-1 is 0.689 µM; at P2X purinoceptor 7 [7], 0.109 µM; in the data set on Peritoneal macrophage [11], 0.723 µM; on P2X purinoceptor 7 [13], 0.897 µM. Besides, the CC50 in data set [17] stood at 325 µM. Moreover, the inhibition result in data set [18] is “Active”.
In the case of `N#Cc1ccc(C2=C(O)C(=O)c3ccccc3C2=O)cc1`, the IC50 on P2X purinoceptor 7 [13] came to 45.8 µM. For the same compound, the Activity entry in the data set with Peritoneal macrophage [14] is “Non-Toxic”.
For `O=C1C(O)=C(c2cccc(F)c2)C(=O)c2ccccc21` the same measures were 33.5 µM and “Non-Toxic”.
`COc1ccc(C2=C(O)C(=O)c3ccccc3C2=O)cc1`: at P2X purinoceptor 7 [13], the IC50 was determined as 80.1 µM. The Activity entry in the data set on Peritoneal macrophage [14] is listed as “Non-Toxic”.
For `O=C1C=C(O)C(=O)c2ccccc21` [LAWSONE] the same measures were 75.5 µM and “Toxic”.
Turning to `O=C1C(O)=C(Br)C(=O)c2ccccc21`, the selectivity ratio is 1180 in the data set on P2X7R, 10 to 20 in data set [5] and 3 to 6 in data set [16]. In addition, the IC50 in the data set with THP-1 amounted to 0.633 µM; at P2X purinoceptor 7 [7], 0.414 µM; with Peritoneal macrophage [11], 0.677 µM; at P2X purinoceptor 7 [13], 0.712 µM. Moreover, the inhibition result in [12] was “Dose-dependent effect”. Further, the Activity entry in the data set with Peritoneal macrophage [14] is recorded as “Non-Toxic”. Also, half-maximal cytotoxicity in data set [17] (CC50) was put at 844 µM. The inhibition result in the data set on Peritoneal macrophage [19] was “inactive”.

The Papp A→B is how fast a substance crosses the layer from the apical side. As usually defined, the IC50 is the point on the concentration scale where inhibition reaches its midpoint. As usually defined, the logD is lipophilicity at a set pH, counting ionised and neutral species. High values mean a more lipophilic compound, low ones a more hydrophilic compound. As a reminder, the CC50 is the concentration that lowers cell viability or growth by half. A low value points to greater toxicity to the cells.

(Values after ChEMBL document CHEMBL4251561, “1,4-Naphthoquinones potently inhibiting P2X7 receptor activity” (Eur J Med Chem, 2018).)
